Active and inactive are the calls of the source. No cut-off for these calls is given here.
Key:
[1] = test system: Mus musculus; test: Antiresorptive activity in ICR mouse assessed as reduction of LPS-induced trabecular bone loss at 2 to 4 mg/kg, ip administered for 8 days with LPS challenge on day 2 and 5 measured on day 9 by hematoxylin and eosin staining; format: functional, organism-based; details: Trabecula
[2] = target: Calmodulin-1 (Mus musculus) (UniProt P0DP26); test: (§1) Binding affinity to Ca2+/calmodulin complex in preosteoclast derived from ICR mouse bone marrow-derived macrophages assessed as inhibition of NFATc1 nuclear translocation at 0.3 to 10 uM preincubated for 30 mins with M-CSF followed by RANKL induction measured after 30 mins by Western blot analysis
[3] = target: Calmodulin-1 (Mus musculus) (UniProt P0DP26); test: (§2) Binding affinity to Ca2+/calmodulin complex in preosteoclast derived from ICR mouse bone marrow-derived macrophages assessed as inhibition of RANKL-induced ATP6v0d2 mRNA expression at 10 uM preincubated for 30 mins with M-CSF followed by RANKL induction measured after 3 hrs by real-time PCR analysis
[4] = target: Calmodulin-1 (Mus musculus) (UniProt P0DP26); test: as §2, with “alphaV-integrin” for “ATP6v0d2”
[5] = test system: Mus musculus; test: Antiresorptive activity in ICR mouse assessed as inhibition of LPS-induced changes in bone mineral density at 2 to 4 mg/kg, ip administered for 8 days with LPS challenge on day 2 and 5 measured on day 9 by histomorphometric analysis; format: functional, organism-based
[6] = test system: Mus musculus; test: Antiresorptive activity in ICR mouse assessed as inhibition of LPS-induced changes in trabecular separation at 2 to 4 mg/kg, ip administered for 8 days with LPS challenge on day 2 and 5 measured on day 9 by histomorphometric analysis; format: functional, organism-based; details: Trabecula
[7] = target: Calmodulin-1 (Mus musculus) (UniProt P0DP26); test: as §2, with “cathepsin K” for “ATP6v0d2”
[8] = target: Calmodulin (Bos taurus) (UniProt P62157); test: Binding affinity to bovine brain calmodulin at 0.1 mM after 60 mins by gel mobility shift assay in presence of EGTA
[9] = target: Calmodulin-1 (Mus musculus) (UniProt P0DP26); test: as §1, with “of RANKL-induced” for “of”, “at” for “at 0.3 to”, “after 3 to 7 hrs” for “after 30 mins”
[10] = target: T1, Tumor necrosis factor ligand superfamily member 11 (Mus musculus) (UniProt O35235); test: Inhibition of RANKL-induced fusion of preosteoclast derived from ICR mouse bone marrow-derived macrophages assessed as formation of tartrate-resistant acid phosphatase-positive multinucleated osteoclast preincubated for 30 mins with M-CSF followed by RANKL induction measured after 1 day by TRAP staining; format: functional, cell-based
T1 sequence (whole entry): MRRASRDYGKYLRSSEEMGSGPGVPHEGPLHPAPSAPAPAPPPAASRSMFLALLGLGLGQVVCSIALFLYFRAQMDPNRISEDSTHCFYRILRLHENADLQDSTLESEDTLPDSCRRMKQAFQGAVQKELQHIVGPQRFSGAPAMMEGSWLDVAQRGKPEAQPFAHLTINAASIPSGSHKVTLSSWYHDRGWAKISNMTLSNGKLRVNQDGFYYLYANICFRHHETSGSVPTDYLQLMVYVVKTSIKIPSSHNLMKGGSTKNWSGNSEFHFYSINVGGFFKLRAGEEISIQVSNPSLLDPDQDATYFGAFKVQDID

[11] = target: Calmodulin-1 (Mus musculus) (UniProt P0DP26); test: Binding affinity to Ca2+/calmodulin complex in preosteoclast derived from ICR mouse bone marrow-derived macrophages assessed as inhibition of RANKL-induced DC-STAMP mRNA expression at 10 uM preincubated for 30 mins with M-CSF followed by RANKL induction measured after 3 hrs by real-time PCR analysis
[12] = target: T1, Tumor necrosis factor ligand superfamily member 11 (Mus musculus); test: Inhibition of RANKL-induced migration of preosteoclast derived from ICR mouse bone marrow-derived macrophages after 8 hrs by Boyden chamber assay; format: functional, cell-based; details: Osteoclast
[13] = test system: Mus musculus; test: Antiresorptive activity in ICR mouse assessed as inhibition of LPS-induced changes in trabecular number at 2 to 4 mg/kg, ip administered for 8 days with LPS challenge on day 2 and 5 measured on day 9 by histomorphometric analysis; format: functional, organism-based; details: Trabecula
[14] = target: Calmodulin-1 (Mus musculus) (UniProt P0DP26); test: Binding affinity to Ca2+/calmodulin complex in preosteoclast derived from ICR mouse bone marrow-derived macrophages assessed as inhibition of CREB phosphorylation at S133 preincubated for 30 mins with M-CSF followed by RANKL induction measured after 30 mins by Western blot analysis
[15] = test system: Mus musculus; test: Antiresorptive activity in ICR mouse assessed as inhibition of LPS-induced cancellous bone loss in distal metaphysis at 2 to 4 mg/kg, ip administered for 8 days with LPS challenge on day 2 and 5 measured on day 9 by microCT analysis; format: functional, organism-based
[16] = target: Calmodulin-1 (Mus musculus) (UniProt P0DP26); test: Binding affinity to Ca2+/calmodulin complex in preosteoclast derived from ICR mouse bone marrow-derived macrophages assessed as inhibition of CaMK-4 phosphorylation at T196 preincubated for 30 mins with M-CSF followed by RANKL induction measured after 30 mins by Western blot analysis
[17] = target: Calmodulin-1 (Mus musculus) (UniProt P0DP26); test: Binding affinity to Ca2+/calmodulin complex in preosteoclast derived from ICR mouse bone marrow-derived macrophages assessed as inhibition of RANKL-induced c-Fos mRNA expression at 10 uM preincubated for 30 mins with M-CSF followed by RANKL induction measured after 3 hrs by real-time PCR analysis
[18] = target: Calmodulin-1 (Homo sapiens) (UniProt P0DP23); test: Binding affinity to recombinant human calmodulin assessed as inhibition of calcineurin phosphatase activity using R2 phosphopeptide substrate at 3 to 10 uM after 30 mins by malachite green staining-based colorimetric analysis in presence of CaCl2
[19] = test system: Mus musculus; test: Antiresorptive activity in ICR mouse assessed as inhibition of LPS-induced changes in bone volume/tissue volume at 2 to 4 mg/kg, ip administered for 8 days with LPS challenge on day 2 and 5 measured on day 9 by histomorphometric analysis; format: functional, organism-based
[20] = test system: Mus musculus; test: Antiresorptive activity in ICR mouse assessed as inhibition of LPS-induced changes in bone surface/tissue volume at 2 to 4 mg/kg, ip administered for 8 days with LPS challenge on day 2 and 5 measured on day 9 by histomorphometric analysis; format: functional, organism-based
[21] = Cytotoxicity against preosteoclast derived from ICR mouse bone marrow-derived macrophages assessed as cell viability at 0.1 to 10 uM after 1 day by CCK-8 assay; format: cell-based; details: osteoclast, 24 h
[22] = test system: Mus musculus; test: Antiresorptive activity in ICR mouse assessed as inhibition of LPS-induced changes in trabecular thickness at 2 to 4 mg/kg, ip administered for 8 days with LPS challenge on day 2 and 5 measured on day 9 by histomorphometric analysis; format: functional, organism-based; details: Trabecula
[23] = target: Calmodulin (Bos taurus) (UniProt P62157); test: Binding affinity to bovine brain calmodulin at 0.1 mM after 60 mins by gel mobility shift assay in presence of CaCl2
[24] = target: Calmodulin-1 (Mus musculus) (UniProt P0DP26); test: Binding affinity to Ca2+/calmodulin complex in preosteoclast derived from ICR mouse bone marrow-derived macrophages assessed as inhibition of RANKL-induced NFATc1 mRNA expression at 10 uM preincubated for 30 mins with M-CSF followed by RANKL induction measured after 3 hrs by real-time PCR analysis

- inhibition [2]: Active
- inhibition [3]: Active
- inhibition [4]: Active
- inhibition [7]: Active
- Activity [8]: inactive
- inhibition [9]: Active
- inhibition [11]: Active
- inhibition [14]: Dose-dependent effect
- inhibition [16]: Dose-dependent effect
- inhibition [17]: Active
- inhibition [18]: Active
- Activity [23]: Active
- inhibition [24]: Active
SMILES: C/C=C(/C)C(=O)O[C@@H]1[C@@H](OC(C)=O)c2c(ccc3ccc(=O)oc23)OC1(C)C
- Activity [1]: Active
- inhibition [5]: Active
- inhibition [6]: Active
- inhibition [10]: Dose-dependent effect
- inhibition [12]: Dose-dependent effect
- inhibition [13]: Active
- inhibition [15]: Active
- inhibition [19]: Active
- inhibition [20]: Active
- Activity [21]: Non-toxic
- inhibition [22]: Active

From ChEMBL document CHEMBL3576801, “Praeruptorin A inhibits in vitro migration of preosteoclasts and in vivo bone erosion, possibly due to its potential to target calmodulin” (J Nat Prod, 2015)
